Reference: PubChem BioAssay (NCI)
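Exposure lasted 48 hours, with cells grown in 96-well plates and compounds tested at five concentrations. GI50 = concentration required for 50% inhibition of growth. Definition used: TGI = concentration required for complete inhibition of growth.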

Columns and labels:
Assay in all cases: inhibition of tumour cell growth, NCI panel, 48 h
786-0 renal = tested on: 786-0 renal
A498 renal = tested on: A498 renal
A549 NSCLC = tested on: A549 NSCLC
ACHN renal = tested on: ACHN renal
BT-549 breast = tested on: BT-549 breast
CAKI-1 renal = tested on: CAKI-1 renal
CCRF-CEM leukemia = tested on: CCRF-CEM leukemia
COLO 205 colon = tested on: COLO 205 colon
DU-145 prostate = tested on: DU-145 prostate
EKVX NSCLC = tested on: EKVX NSCLC
HCC-2998 colon = tested on: HCC-2998 colon
HCT-116 colon = tested on: HCT-116 colon
HCT-15 colon = tested on: HCT-15 colon
HL-60(TB) leukemia = tested on: HL-60(TB) leukemia
HOP-62 NSCLC = tested on: HOP-62 NSCLC
HOP-92 NSCLC = tested on: HOP-92 NSCLC
HS 578T breast = tested on: HS 578T breast
HT29 colon = tested on: HT29 colon
IGROV1 ovarian = tested on: IGROV1 ovarian
K-562 leukemia = tested on: K-562 leukemia
KM12 colon = tested on: KM12 colon
LOX IMVI melanoma = tested on: LOX IMVI melanoma
M14 melanoma = tested on: M14 melanoma
MALME-3M melanoma = tested on: MALME-3M melanoma
MCF7 breast = tested on: MCF7 breast
MDA-MB-231 breast = tested on: MDA-MB-231 breast
MDA-MB-435 = tested on: MDA-MB-435
NCI-H226 lung = tested on: NCI-H226 lung
NCI-H23 lung = tested on: NCI-H23 lung
NCI-H460 lung = tested on: NCI-H460 lung
NCI-H522 lung = tested on: NCI-H522 lung
NCI/ADR-RES ovarian = tested on: NCI/ADR-RES ovarian
OVCAR-3 ovarian = tested on: OVCAR-3 ovarian
OVCAR-4 ovarian = tested on: OVCAR-4 ovarian
OVCAR-5 ovarian = tested on: OVCAR-5 ovarian
OVCAR-8 ovarian = tested on: OVCAR-8 ovarian
PC-3 prostate = tested on: PC-3 prostate
RPMI-8226 leukemia = tested on: RPMI-8226 leukemia
RXF 393 renal = tested on: RXF 393 renal
SF-268 CNS = tested on: SF-268 CNS
SF-295 CNS = tested on: SF-295 CNS
SF-539 CNS = tested on: SF-539 CNS
SK-MEL-2 melanoma = tested on: SK-MEL-2 melanoma
SK-MEL-28 melanoma = tested on: SK-MEL-28 melanoma
SK-MEL-5 melanoma = tested on: SK-MEL-5 melanoma
SK-OV-3 ovarian = tested on: SK-OV-3 ovarian
SN12C renal = tested on: SN12C renal
SNB-19 CNS = tested on: SNB-19 CNS
SNB-75 CNS = tested on: SNB-75 CNS
SR leukemia = tested on: SR leukemia
SW-620 colon = tested on: SW-620 colon
T-47D breast = tested on: T-47D breast
TK-10 renal = tested on: TK-10 renal
U251 CNS = tested on: U251 CNS
UACC-257 melanoma = tested on: UACC-257 melanoma
UACC-62 melanoma = tested on: UACC-62 melanoma
UO-31 renal = tested on: UO-31 renal
MOLT-4 leukemia = tested on: MOLT-4 leukemia

## COc1ccc(Sc2[nH]c(C(C)=O)c3ccccc23)cc1
786-0 renal
  GI50: 16.5 µM
  TGI: 34.8 µM
A498 renal
  GI50: 0.265 µM
  TGI: 0.848 µM
A549 NSCLC
  GI50: 4 µM
  TGI: 51.3 µM
ACHN renal
  GI50: 16.5 µM
  TGI: 49.6 µM
BT-549 breast
  GI50: 3.13 µM
  TGI: 17.4 µM
CAKI-1 renal
  GI50: 2.86 µM
  TGI: 24 µM
CCRF-CEM leukemia
  GI50: 14.3 µM
  TGI: 40 µM
COLO 205 colon
  GI50: 0.174 µM
  TGI: 0.398 µM
DU-145 prostate
  GI50: 16 µM
  TGI: 36.8 µM
EKVX NSCLC
  GI50: 8.13 µM
  TGI: 26 µM
HCC-2998 colon
  GI50: 11.9 µM
  TGI: 24.4 µM
HCT-116 colon
  GI50: 12 µM
  TGI: 24.3 µM
HCT-15 colon
  GI50: 11.5 µM
  TGI: 31 µM
HL-60(TB) leukemia
  GI50: 15 µM
  TGI: 33.4 µM
HOP-62 NSCLC
  GI50: 12.7 µM
  TGI: 25.3 µM
HOP-92 NSCLC
  GI50: 2.4 µM
  TGI: 18.1 µM
HS 578T breast
  GI50: 10.9 µM
  TGI: 32.6 µM
HT29 colon
  GI50: 15.4 µM
  TGI: 30.7 µM
IGROV1 ovarian
  GI50: 11.8 µM
  TGI: 43 µM
K-562 leukemia
  GI50: 2.65 µM
  TGI: 14.7 µM
KM12 colon
  GI50: 6.49 µM
  TGI: 19.7 µM
LOX IMVI melanoma
  GI50: 11.8 µM
  TGI: 24.4 µM
M14 melanoma
  GI50: 11.7 µM
  TGI: 25.1 µM
MALME-3M melanoma
  GI50: 17.8 µM
  TGI: 51.3 µM
MCF7 breast
  GI50: 12.2 µM
  TGI: 24.6 µM
MDA-MB-231 breast
  GI50: 11.4 µM
  TGI: 29.5 µM
MDA-MB-435
  GI50: 2.76 µM
  TGI: 13 µM
NCI-H226 lung
  GI50: 5.66 µM
  TGI: 27.6 µM
NCI-H23 lung
  GI50: 14.6 µM
  TGI: 41.5 µM
NCI-H460 lung
  GI50: 7.41 µM
  TGI: 20.6 µM
NCI-H522 lung
  GI50: 10.2 µM
  TGI: 36.1 µM
NCI/ADR-RES ovarian
  GI50: 11.8 µM
  TGI: 31.8 µM
OVCAR-3 ovarian
  GI50: 12.2 µM
  TGI: 24.6 µM
OVCAR-4 ovarian
  GI50: 13.3 µM
  TGI: 32 µM
OVCAR-5 ovarian
  GI50: 17.3 µM
  TGI: 53.1 µM
OVCAR-8 ovarian
  GI50: 16.4 µM
  TGI: 36.8 µM
PC-3 prostate
  GI50: 11.1 µM
  TGI: 28.4 µM
RPMI-8226 leukemia
  GI50: 10.9 µM
  TGI: 33.4 µM
RXF 393 renal
  GI50: 13.6 µM
  TGI: 39 µM
SF-268 CNS
  GI50: 12.9 µM
  TGI: 27.1 µM
SF-295 CNS
  GI50: 11.6 µM
  TGI: 26.7 µM
SF-539 CNS
  GI50: 14.5 µM
  TGI: 27.6 µM
SK-MEL-2 melanoma
  GI50: 13 µM
  TGI: 31.2 µM
SK-MEL-28 melanoma
  GI50: 13.5 µM
  TGI: 26.3 µM
SK-MEL-5 melanoma
  GI50: 12.5 µM
  TGI: 24.9 µM
SK-OV-3 ovarian
  GI50: 1.79 µM
  TGI: 10.5 µM
SN12C renal
  GI50: 11 µM
  TGI: 24.7 µM
SNB-19 CNS
  GI50: 11.6 µM
  TGI: 31.2 µM
SNB-75 CNS
  GI50: 10.7 µM
  TGI: 51.3 µM
SR leukemia
  GI50: 1.35 µM
  TGI: 15.2 µM
SW-620 colon
  GI50: 12.5 µM
  TGI: 26.8 µM
T-47D breast
  GI50: 8.41 µM
  TGI: 36 µM
TK-10 renal
  GI50: 15 µM
  TGI: 37.5 µM
U251 CNS
  GI50: 11.9 µM
  TGI: 25.1 µM
UACC-257 melanoma
  GI50: 15.3 µM
  TGI: 33.3 µM
UACC-62 melanoma
  GI50: 10.3 µM
  TGI: 22 µM
UO-31 renal
  GI50: 5.84 µM
  TGI: 23.4 µM

## COc1cc(OCc2cccc(-c3ccc(C(O)c4nccs4)cc3)c2C)cc(OC)c1C=O (stereo not drawn)
786-0 renal
  GI50: 2.16 µM
  TGI: 7.2 µM
A498 renal
  GI50: 0.103 µM
  TGI: 0.238 µM
A549 NSCLC
  GI50: 2.32 µM
  TGI: 11.6 µM
ACHN renal
  GI50: 1.72 µM
  TGI: 6.68 µM
BT-549 breast
  GI50: 1.77 µM
  TGI: 6.78 µM
CAKI-1 renal
  GI50: 0.182 µM
  TGI: 3.3 µM
CCRF-CEM leukemia
  GI50: 2.33 µM
  TGI: 19.9 µM
COLO 205 colon
  GI50: 2.64 µM
  TGI: 8.27 µM
DU-145 prostate
  GI50: 2.81 µM
  TGI: 10.5 µM
EKVX NSCLC
  GI50: 2.02 µM
  TGI: 6.63 µM
HCC-2998 colon
  GI50: 2.28 µM
  TGI: 7.08 µM
HCT-116 colon
  GI50: 1.44 µM
  TGI: 4.51 µM
HCT-15 colon
  GI50: 1.79 µM
  TGI: 4.4 µM
HL-60(TB) leukemia
  GI50: 1.87 µM
  TGI: 4.85 µM
HOP-62 NSCLC
  GI50: 3.88 µM
  TGI: 18.3 µM
HOP-92 NSCLC
  GI50: 2.19 µM
  TGI: 8.52 µM
HS 578T breast
  GI50: 3.08 µM
  TGI: 20.5 µM
HT29 colon
  GI50: 2.83 µM
  TGI: 13.6 µM
IGROV1 ovarian
  GI50: 0.887 µM
  TGI: 4.84 µM
K-562 leukemia
  GI50: 1.22 µM
  TGI: 13.6 µM
KM12 colon
  GI50: 3.02 µM
  TGI: 11 µM
LOX IMVI melanoma
  GI50: 1.79 µM
  TGI: 4.08 µM
M14 melanoma
  GI50: 2.55 µM
  TGI: 7.61 µM
MALME-3M melanoma
  GI50: 2.7 µM
  TGI: 7.9 µM
MCF7 breast
  GI50: 1.69 µM
  TGI: 4.81 µM
MDA-MB-231 breast
  GI50: 2.2 µM
  TGI: 7.32 µM
MDA-MB-435
  GI50: 2.22 µM
  TGI: 6.26 µM
MOLT-4 leukemia
  GI50: 1.9 µM
  TGI: 5.88 µM
NCI-H226 lung
  GI50: 0.37 µM
  TGI: 2.7 µM
NCI-H23 lung
  GI50: 1.92 µM
  TGI: 10.2 µM
NCI-H460 lung
  GI50: 1.09 µM
  TGI: 10.7 µM
NCI-H522 lung
  GI50: 1.74 µM
  TGI: 6.35 µM
NCI/ADR-RES ovarian
  GI50: 2.84 µM
  TGI: 14.7 µM
OVCAR-3 ovarian
  GI50: 1.62 µM
  TGI: 4.36 µM
OVCAR-4 ovarian
  GI50: 0.597 µM
  TGI: 6.35 µM
OVCAR-5 ovarian
  GI50: 0.929 µM
  TGI: 5.54 µM
OVCAR-8 ovarian
  GI50: 2.9 µM
  TGI: 23.6 µM
PC-3 prostate
  GI50: 2.74 µM
  TGI: 11.2 µM
RPMI-8226 leukemia
  GI50: 1.34 µM
  TGI: 5.47 µM
RXF 393 renal
  GI50: 2.22 µM
  TGI: 6.93 µM
SF-268 CNS
  GI50: 2.92 µM
  TGI: 12.3 µM
SF-295 CNS
  GI50: 2.12 µM
  TGI: 6.58 µM
SF-539 CNS
  GI50: 1.96 µM
  TGI: 4.83 µM
SK-MEL-2 melanoma
  GI50: 2.58 µM
  TGI: 8.53 µM
SK-MEL-28 melanoma
  GI50: 2.04 µM
  TGI: 6.57 µM
SK-MEL-5 melanoma
  GI50: 1.11 µM
  TGI: 2.4 µM
SK-OV-3 ovarian
  GI50: 6.07 µM
  TGI: 20.9 µM
SN12C renal
  GI50: 1.98 µM
  TGI: 7.07 µM
SNB-19 CNS
  GI50: 3.16 µM
  TGI: 13.4 µM
SR leukemia
  GI50: 1.82 µM
  TGI: 5.08 µM
SW-620 colon
  GI50: 3.2 µM
  TGI: 12.7 µM
T-47D breast
  GI50: 0.401 µM
  TGI: 6.38 µM
TK-10 renal
  GI50: 1.69 µM
  TGI: 13.7 µM
U251 CNS
  GI50: 2.74 µM
  TGI: 11.3 µM
UACC-257 melanoma
  GI50: 0.842 µM
  TGI: 5.11 µM
UACC-62 melanoma
  GI50: 0.349 µM
  TGI: 1.92 µM
UO-31 renal
  GI50: 1.49 µM
  TGI: 4.68 µM
